For this experiment, the target named is Carbonic anhydrase 12 (Homo sapiens, UniProt O43570).

Molecules are shown by their SMILES.

Sequence of Carbonic anhydrase 12 (O43570 whole entry): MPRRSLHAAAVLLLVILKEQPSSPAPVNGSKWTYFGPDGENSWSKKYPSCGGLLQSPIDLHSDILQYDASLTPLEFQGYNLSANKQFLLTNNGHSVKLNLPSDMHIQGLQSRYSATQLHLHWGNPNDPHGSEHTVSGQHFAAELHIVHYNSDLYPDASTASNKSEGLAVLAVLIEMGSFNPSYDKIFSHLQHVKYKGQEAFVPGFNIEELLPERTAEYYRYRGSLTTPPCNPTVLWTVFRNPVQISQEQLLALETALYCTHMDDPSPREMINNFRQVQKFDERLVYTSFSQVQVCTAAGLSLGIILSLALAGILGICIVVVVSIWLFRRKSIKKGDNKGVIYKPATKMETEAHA
Description: Inhibitory activity against cloned human CA12

As to `Cc1ccc(-c2cc(C(F)(F)F)nn2-c2ccc(S(N)(=O)=O)cc2)cc1` [CELECOXIB], the affinity corresponds to a Ki of 18 nM.

Usually Ki stands for the dissociation constant of the complex between target and ligand, obtained from inhibition or displacement.

These data come from ChEMBL document CHEMBL1148565 (Bioorg Med Chem Lett, 2006).
